Measurements published in ChEMBL document CHEMBL4017548, “Molecular Hybridization of Potent and Selective γ-Hydroxybutyric Acid (GHB) Ligands: Design, Synthesis, Binding Studies, and Molecular Modeling of Novel 3-Hydroxycyclopent-1-enecarboxylic Acid (HOCPCA) and trans-γ-Hydroxycrotonic Acid (T-HCA) Analogs” (J Med Chem, 2017).

Experiment: Displacement of [3H]NCS-382 from GHB binding site in Sprague-Dawley rat brain synaptosomal membranes after 1 hr by scintillation counting method

Compound	Ki [µM]	pKi
CCC1=C(C(=O)O)CCC1O (stereo not drawn)	> 300	
C=CCC1=C(C(=O)O)CCC1O (stereo not drawn)	> 300	
O=C(O)C1=CC(O)CC1 (stereo not drawn)	0.13 to 0.16	6.89
COc1cccc(CC2=C(C(=O)O)CCC2O)c1 (stereo not drawn)	46	4.43
O=C(O)/C=C/C(O)c1ccc(OCc2ccccc2)cc1 (stereo not drawn)	0.043	7.43
O=C(O)C1=CCCC1	31	4.51
O=C(O)[C@]12CC[C@@H](O)[C@H]1C2 (relative stereo)	> 100	
O=C(O)C#CC1(O)CCCC1	2.7	5.57
O=C(O)C1=CC(c2ccccc2)CC1 (stereo not drawn)	16	4.8
O=C(O)/C=C/C1(O)CCCCC1	4.3	5.37
O=C(O)CCCO [OXYBATE]	3.6	5.44
O=C(O)[C@@H]1CC[C@@](O)(c2ccccc2)C1	53	4.28
O=C(O)C1=C(c2ccc(Cl)c(Cl)c2)C(O)CC1 (stereo not drawn)	62	4.21
O=C(O)/C=C/C1(O)CCC1	3.5	5.47
O=C(O)/C=C/C(O)c1ccc(Cc2ccccc2)cc1 (stereo in doubt; (-)-9e)	1.16	5.97
COc1ccc(C2=C(C(=O)O)CCC2O)cc1 (stereo not drawn)	> 300	
O=C(O)/C=C/C(O)c1ccc(CCc2ccccc2)cc1 (racemic)	0.042	7.39
O=C(O)/C=C/C(O)c1ccc(Cc2ccccc2)cc1 (single isomer, unassigned; (+))	0.03	7.47
O=C(O)C#CC1(O)CCCCC1	7.7	5.12
Cc1ccc(C2=C(C(=O)O)CCC2O)cc1 (stereo not drawn)	157	3.81
O=C(O)C1CCC(O)C1 (stereo not drawn)	20	4.71

Compound	Ki [µM]	pKi
O=C(O)C1=CC(c2ccc(OCc3ccccc3)cc2)CC1 (stereo not drawn)	1.6	5.77
O=C(O)[C@H]1CCC[C@@H](O)C1 (relative stereo)	35	4.45
O=C(O)/C=C/C(O)c1ccc(Cc2ccccc2)cc1 (racemic)	0.042	7.38
O=C(O)C#CCO	4.3	5.5
O=C(O)C1=C[C@@H](O)CC1	1.4	
O=C(O)C1=C(c2ccc(Cl)cc2)C(O)CC1 (stereo not drawn)	70	4.16
O=C(O)C#CC1(O)CCC1	1.6	5.78
O=C(O)/C=C/C1(O)CCCC1	3.1	5.51
O=C(O)C#CC(O)Cc1ccccc1 (racemic)	3.5	5.45
O=C(O)C1=C(c2ccccc2)C(O)CC1 (stereo not drawn)	48	4.32
CC1=C(C(=O)O)CCC1O (stereo not drawn)	80	4.1
O=C(O)C1=CC(c2ccc(-c3ccccc3)cc2)CC1 (stereo not drawn)	3.2	5.49
O=C(O)C1=C[C@H](O)CC1	0.11	
O=C(O)C#CC(O)c1ccc(OCc2ccccc2)cc1 (racemic)	1.6	5.8
O=C(O)C1=C(Cc2ccccc2)C(O)CC1 (stereo not drawn)	38	4.43
O=C(O)/C=C/C(O)c1ccc(-c2ccccc2)cc1 (racemic)	0.075	7.14
O=C(O)[C@@H]1CC[C@@](O)(c2ccc(-c3ccccc3)cc2)C1	0.51	6.29
O=C(O)[C@@H]1CCC[C@@H](O)C1 (relative stereo)	28	4.55
O=C(O)C1CC(O)C1 (stereo not drawn)	70	4.16
O=C(O)C1=CC(c2ccccc2O)CC1 (stereo not drawn)	4.6	5.34
O=C(O)/C=C/C(O)c1ccc(OCc2ccc(Br)cc2)cc1 (stereo not drawn)	0.023	7.64
